According to US10603289B2, “Process for the manufacture of ajoene derivatives” (DANMARKS TEKNISKE UNIVERSITET, priority 2010, dated 2020):

Columns and labels:
P. aeruginosa genes = assay: DNA microarray, number of genes regulated by ajoene treatment; type: cell-based
Procedure: (§1) DNA microarray analysis was used to identify genes regulated by ajoene treatment. As a reference we have used the QS regulon previously identified by Hentzer et al., [M. Hentzer et al., EMBO J., 2003, 22, p. […] Exponential growing P. aeruginosa cultures were treated with the following four concentrations of ajoene; 10 μg/ml (42.7 μM), 20 μg/ml (85.4 μM), 40 μg/ml (170.8 μM) and 80 μg/ml (341.6 μM). (E,Z) ajoene having an E:Z ratio of 1:4 was used. […] The samples were retrieved at an OD600 nm of 2.0 (optical density) because previous investigations have shown the highest activity among the QS genes at that cell density. Gene expression of the treated cultures was compared to an untreated control.
In general, there was only a small number of genes that were down regulated more than 5 fold by the four different concentrations of ajoene; 0 genes at 10 μg/ml ajoene, 0 genes at 20 μg/ml ajoene, 2 genes at 40 μg/ml ajoene and 11 genes at 80 μg/ml ajoene. […] According to our experimental settings, expression of 10 out of the total number of 163 QS controlled P. aeruginosa genes (according to Hentzer et al., [M. Hentzer et al., EMBO J., 2003, 22, p. 3803-3815]) was down regulated by the ajoene treatments. A concentration of 80 μg/ml ajoene affects expression of 11 out of a total of 5570 P. aeruginosa genes. Ajoene is therefore highly specific for a subclass of QS controlled genes (Table 3).

Gram positive bacteria = conditions: E:Z=1:4 isomer used; cited from earlier work
lasB [1] = assay: RT-PCR verification of the microarray data; type: cell-based, P. aeruginosa; conditions: 80 μg/ml ajoene; E:Z 1:4
Procedure: (§2) To verify the microarray data, RT-PCR was performed with two of the key QS genes; lasB and rhlA (see FIG. 3). When comparing the two methods the repression of both the lasB and rhlA gene expression follow the same trend, with a general slightly increase in fold reduction observed with the RT-PCR based method. […] The expression of rhlA is primarily controlled by the Rhl QS system and the signal molecule BHL whereas the expression of lasB is affected by both the Las and the Rhl QS systems and the concentration of the signal molecules OdDHL and BHL. According to Rasmussen et al., [Rasmussen et al., Microbiology, 2005, 151, p. 1325-1340], the genes listed in table 3 are (except prpL which regulation is entirely governed by the Las QS system) subject to regulation by both the Las and Rhl QS systems. […] (E,Z) ajoene having an E:Z ratio of 1:4 was used in these experiments.

rhlA = assay: RT-PCR verification of the microarray data; type: cell-based, P. aeruginosa; conditions: 80 μg/ml ajoene; E:Z 1:4
Procedure: as §2

PA4141 = assay: DNA microarray, gene expression in ajoene treated P. aeruginosa cultures; type: cell-based; conditions: E:Z 1:4, OD600 2.0
Procedure: as §1

PA2570 pa1L = assay: as above; type: cell-based; conditions: pa1L PA2570 (LecA), E:Z 1:4, OD600 2.0
Procedure: as §1

PA2069 = assay: as above; type: cell-based; conditions: E:Z 1:4, OD600 2.0
Procedure: as §1

PA3478 rhlB = assay: as above; type: cell-based; conditions: E:Z 1:4, OD600 2.0
Procedure: as §1

PA0852 cbpD = assay: as above; type: cell-based; conditions: E:Z 1:4, OD600 2.0
Procedure: as §1

PA4142 = assay: as above; type: cell-based; conditions: E:Z 1:4, OD600 2.0
Procedure: as §1

PA2146 = assay: as above; type: cell-based; conditions: E:Z 1:4, OD600 2.0
Procedure: as §1

lasB [2] = assay: as above; type: cell-based; conditions: ajoene 10-80 μg/ml
Procedure: as §1

PA4175 prpL = assay: as above; type: cell-based; conditions: E:Z 1:4, OD600 2.0
Procedure: as §1

PA2300 chic = assay: as above; type: cell-based; conditions: E:Z 1:4, OD600 2.0
Procedure: as §1

PA1871 lasA = assay: as above; type: cell-based; conditions: E:Z 1:4, OD600 2.0
Procedure: as §1

PA3479 rhlA = assay: as above; type: cell-based; conditions: E:Z 1:4, OD600 2.0
Procedure: as §1

P. aeruginosa cultures = assay: Growth inhibitory effect on exponential growing cultures; type: cell-based; conditions: 10, 20, 40 and 80 μg/ml ajoene; E:Z 1:4
Procedure: as §1

wild-type P. aeruginosa = assay: Foreign-body (silicone tube implant) infection model; type: in vivo, mice
Procedure: To examine the effect of a combination treatment with ajoene and tobramycin in vivo we used an foreign-body infection model [L. D. Christensen et al., Microbiology, 2007, 153, p. 2312-2320]. Silicone tube implants with a size of 4 mm (inner diameter 4 mm/outer diameter 6 mm) pre-colonized with wild-type P. aeruginosa, were inserted into the peritoneal cavity of mice. Treatments were injected subcutaneously every 24 hours, where ajoene and tobramycin treatment were initiated two days pre-insertion and 24 hours post-insertion, respectively. 72 hours after insertion the implants were removed from the mice and the number of colony-forming units per implant was determined. […] (E,Z) ajoene having an E:Z ratio of 1:4 was used.

C=CCSSC=CC[S+]([O-])CC=C (centres unmarked) [ajoene, (E,Z)-4,5,9-trithiadodeca-1,6,11-triene-9-oxide]
number of genes down regulated more than 5 fold (P. aeruginosa genes; 10 μg/ml ajoene): 0 genes
number of genes down regulated more than 5 fold (P. aeruginosa genes; 20 μg/ml ajoene): 0 genes
number of genes down regulated more than 5 fold (P. aeruginosa genes; 40 μg/ml ajoene): 2 genes
number of genes down regulated more than 5 fold (P. aeruginosa genes; 80 μg/ml ajoene, out of a total of 5570 P. aeruginosa genes): 11 genes
number of QS controlled P. aeruginosa genes down regulated by the ajoene treatments (P. aeruginosa genes; out of the total number of 163 QS controlled genes (Hentzer et al.)): 10 genes
growth inhibition of Gram positive bacteria (Gram positive bacteria): strong growth inhibitor
lowering of expression of lasB (RT-PCR) (lasB [1]): ~5 fold
lowering of expression of rhlA (RT-PCR) (rhlA): ~12 fold
fold change in gene expression compared to an untreated control (PA4141; [Ajoene] 10 μg/ml): −1.0 fold
fold change in gene expression compared to an untreated control (PA4141; [Ajoene] 20 μg/ml): −1.1 fold
fold change in gene expression compared to an untreated control (PA4141; [Ajoene] 40 μg/ml): −1.3 fold
fold change in gene expression compared to an untreated control (PA4141; [Ajoene] 80 μg/ml): −5.4 fold
fold change in gene expression compared to an untreated control (PA2570 pa1L; [Ajoene] 10 μg/ml): −1.8 fold
fold change in gene expression compared to an untreated control (PA2570 pa1L; [Ajoene] 20 μg/ml): −2.0 fold
fold change in gene expression compared to an untreated control (PA2570 pa1L; [Ajoene] 40 μg/ml): −3.3 fold
fold change in gene expression compared to an untreated control (PA2570 pa1L; [Ajoene] 80 μg/ml): −6.3 fold
fold change in gene expression compared to an untreated control (PA2069; [Ajoene] 10 μg/ml): −2.3 fold
fold change in gene expression compared to an untreated control (PA2069; [Ajoene] 20 μg/ml): −2.4 fold
fold change in gene expression compared to an untreated control (PA2069; [Ajoene] 40 μg/ml): −4.0 fold
fold change in gene expression compared to an untreated control (PA2069; [Ajoene] 80 μg/ml): −5.3 fold
fold change in gene expression compared to an untreated control (PA3478 rhlB; [Ajoene] 10 μg/ml): −2.6 fold
fold change in gene expression compared to an untreated control (PA3478 rhlB; [Ajoene] 20 μg/ml): −2.0 fold
fold change in gene expression compared to an untreated control (PA3478 rhlB; [Ajoene] 40 μg/ml): −3.3 fold
fold change in gene expression compared to an untreated control (PA3478 rhlB; [Ajoene] 80 μg/ml): −8.7 fold
fold change in gene expression compared to an untreated control (PA0852 cbpD; [Ajoene] 10 μg/ml): −2.8 fold
fold change in gene expression compared to an untreated control (PA0852 cbpD; [Ajoene] 20 μg/ml): −2.5 fold
fold change in gene expression compared to an untreated control (PA0852 cbpD; [Ajoene] 40 μg/ml): −3.9 fold
fold change in gene expression compared to an untreated control (PA0852 cbpD; [Ajoene] 80 μg/ml): −6.9 fold
fold change in gene expression compared to an untreated control (PA4142; [Ajoene] 10 μg/ml): −2.0 fold
fold change in gene expression compared to an untreated control (PA4142; [Ajoene] 20 μg/ml): −2.2 fold
fold change in gene expression compared to an untreated control (PA4142; [Ajoene] 40 μg/ml): −2.7 fold
fold change in gene expression compared to an untreated control (PA4142; [Ajoene] 80 μg/ml): −5.1 fold
fold change in gene expression compared to an untreated control (PA2146; [Ajoene] 10 μg/ml): −1.3 fold
fold change in gene expression compared to an untreated control (PA2146; [Ajoene] 20 μg/ml): −1.8 fold
fold change in gene expression compared to an untreated control (PA2146; [Ajoene] 40 μg/ml): −2.6 fold
fold change in gene expression compared to an untreated control (PA2146; [Ajoene] 80 μg/ml): −7.3 fold
down regulation of lasB (DNA microarray) (lasB [2]): not more than 5 fold
fold change in gene expression compared to an untreated control (PA4175 prpL; [Ajoene] 10 μg/ml): −3.7 fold
fold change in gene expression compared to an untreated control (PA4175 prpL; [Ajoene] 20 μg/ml): −3.3 fold
fold change in gene expression compared to an untreated control (PA4175 prpL; [Ajoene] 40 μg/ml): −5.3 fold
fold change in gene expression compared to an untreated control (PA4175 prpL; [Ajoene] 80 μg/ml): −6.8 fold
fold change in gene expression compared to an untreated control (PA2300 chic; [Ajoene] 10 μg/ml): −2.5 fold
fold change in gene expression compared to an untreated control (PA2300 chic; [Ajoene] 20 μg/ml): −2.1 fold
fold change in gene expression compared to an untreated control (PA2300 chic; [Ajoene] 40 μg/ml): −5.1 fold
fold change in gene expression compared to an untreated control (PA2300 chic; [Ajoene] 80 μg/ml): −24.6 fold
fold change in gene expression compared to an untreated control (PA1871 lasA; [Ajoene] 10 μg/ml): −2.6 fold
fold change in gene expression compared to an untreated control (PA1871 lasA; [Ajoene] 20 μg/ml): −2.2 fold
fold change in gene expression compared to an untreated control (PA1871 lasA; [Ajoene] 40 μg/ml): −3.0 fold
fold change in gene expression compared to an untreated control (PA1871 lasA; [Ajoene] 80 μg/ml): −8.7 fold
fold change in gene expression compared to an untreated control (PA3479 rhlA; [Ajoene] 10 μg/ml): −2.2 fold
fold change in gene expression compared to an untreated control (PA3479 rhlA; [Ajoene] 20 μg/ml): −1.5 fold
fold change in gene expression compared to an untreated control (PA3479 rhlA; [Ajoene] 40 μg/ml): −2.6 fold
fold change in gene expression compared to an untreated control (PA3479 rhlA; [Ajoene] 80 μg/ml): −8.8 fold
growth inhibitory effects (P. aeruginosa cultures): do not exert any growth inhibitory effects
clearing of implants, single treatment versus placebo group (wild-type P. aeruginosa; CFU per implant 72 hours after insertion): significant difference in clearing
clearing of implants, between the two single treatment groups (wild-type P. aeruginosa; ajoene versus tobramycin): no significant difference in clearing
